Three compounds from ChEMBL document CHEMBL6153030, “Design, synthesis, and biological evaluation of novel pleuromutilin derivatives with methicillin-resistant Staphylococcus aureus -targeting phenol linker groups” (Eur J Med Chem, 2025) can be followed below.

As a reminder, the MIC is the least concentration at which growth counts as inhibited. The LC50 is the concentration lethal to half of the exposed cells or organisms. The ED50 is the midpoint of the dose-response relation.

Values after ≈ are worked out from the molar mass of the structure shown. Active and inactive are the calls of the source. No cut-off for these calls is given here.

The test system of data set [1] is Staphylococcus aureus. The data set can be described thus: Antibacterial activity against Staphylococcus aureus ATCC 29213 assessed as inhibition of bacterial growth incubated for 96 hrs by broth microdilution method. The format is functional.
The subject of data set [2] is Staphylococcus aureus. In words: Antibacterial activity against methicillin-resistant Staphylococcus aureus ATCC43300 assessed as inhibition of bacterial growth incubated for 96 hrs by broth microdilution method. The data set is classed as functional. (In general: Broth dilution looks for growth in wells or tubes with falling amounts of substance.)
Another data set concerns Streptococcus pneumoniae. The data set can be described thus: Antibacterial activity against Streptococcus pneumoniae ATCC 49619 assessed as inhibition of bacterial growth incubated for 96 hrs by broth microdilution method. The format is functional.
Data set [3] has as its system Staphylococcus epidermidis. In words: Antibacterial activity against methicillin-resistant Staphylococcus epidermidis ATCC 51625 assessed as inhibition of bacterial growth incubated for 96 hrs by broth microdilution method. The format is functional.
Another data set relates to Escherichia coli. In words: Antibacterial activity against Escherichia coli ATCC 25922 assessed as inhibition of bacterial growth incubated for 96 hrs by broth microdilution method. The data set is classed as functional.
The subject of data set [4] is Staphylococcus aureus. In words: Antibacterial activity against methicillin-resistant Staphylococcus aureus ATCC43300 assessed as inhibition of bacterial growth measured on day 8. The format is functional. The following applies: ATCC43300, 192 h, time 8 day.
Data set [5] concerns Staphylococcus aureus. The data set can be described thus: Antibacterial activity against methicillin-resistant Staphylococcus aureus ATCC43300 assessed as inhibition of bacterial growth measured on day 20. The format is functional. The following applies: ATCC43300, 480 h, time 20 day.
Data set [6] in a line: Toxicity against Zebrafish assessed as reduction of survival of embryos measured after 96 hrs. The following applies: in vivo. On the set-up: species or system Danio rerio.
A further data set relates to HEK293. The data set can be described thus: Cytotoxicity against HEK293 cells assessed as reduction in cell survival upto 120 ug/ml incubated for 6 hrs by CCK8 assay. The following applies: human, hek293, 6 h, dose < 120 µg/ml. The format is toxicity, cell-based.
The test system of another data set is HepG2. The data set can be described thus: Cytotoxicity against human HepG2 cells assessed as reduction in cell survival at 250 ug/ml incubated for 6 hrs by CCK8 assay. The format is toxicity, cell-based. The following applies: hepg2, 6 h, dose 250 µg/ml. In general terms: Formazan colour is commonly taken as a measure of viable cells.
Data set [7] deals with Staphylococcus aureus. The data set can be described thus: In vivo antibacterial activity against methicillin-resistant Staphylococcus aureus ATCC43300 infected in Kunming mouse assessed as increase in animal survival rate administered ip at 1 hr post-infection. The data set is classed as functional. The following applies: ATCC43300, 1 h.
In data set [8] the test system is Staphylococcus aureus. In words: Bactericidal activity against methicillin-resistant Staphylococcus aureus ATCC 43300 assessed as bacterial killing at 6XMIC incubated for 96 hrs in broth followed by culturing on agar plate for 12 hrs by time-kill kinetics analysis. The format is functional. The note with it: time 108 hrs.
The test system of data set [9] is Staphylococcus aureus. In words: Antibacterial activity against methicillin-resistant Staphylococcus aureus ATCC43300 assessed as inhibition of bacterial growth measured after 21 days. The data set is classed as functional. The following applies: ATCC43300, 504 h, time 21 day.
Data set [10] in a line: Toxicity against zebrafish embryo assessed as teratogenic effect at 128 ug/ml measured after 96 hrs by microscopic analysis. More on the design: species or system Danio rerio. The note with it: in vivo, dose 128 µg/ml.
For data set [11], the target named is T1, 70S ribosome (Staphylococcus aureus) (UniProt Q2FW31+P0A0H0+Q2FW30+Q2FW19+Q2FYU5+Q2G2Q1+Q2FZ45+Q2FW15+Q2G111+Q2FW10+Q2FXY6+Q2FXZ7+Q2FZ25+Q2FW12+Q2FXK6+Q2FW23+Q2G113+P48940+Q2FW20+Q2FW39+Q2FYF9+Q2G0N9+P0A0F4+Q2FW38+Q2FW16+P0A0F8+Q2FW13+Q2FW33+Q2FW22+Q2FZ42+Q2G0P0+Q2FXQ1+Q2FXS8+Q2FW11+Q2FW08+Q2FW17+Q2FXT0+Q2FZ60+Q2FW14+P60430+P0A0G2+Q2FWD8+Q2FZF1+Q2FYU6+Q2FY22+Q2FUQ0+Q2FXQ0+Q2FW29+Q2FW06+Q2FW07+Q2FW18+Q2FW21+P48860+Q2G2T3). In words: Inhibition of ribosomal peptidyl transferase centre in methicillin-resistant Staphylococcus aureus ATCC43300 assessed as inhibition of bacterial cell division at 4XMIC by scanning electron microscopy. The data set is classed as functional.

In data set [12] the target is T1, 70S ribosome (Staphylococcus aureus). The data set can be described thus: Inhibition of ribosomal peptidyl transferase centre in methicillin-resistant Staphylococcus aureus ATCC43300 assessed as bacterial cell membrane damage at 4XMIC by scanning electron microscopy. The format is functional.
Data set [13] relates to Staphylococcus aureus. In words: Bactericidal activity against methicillin-resistant Staphylococcus aureus ATCC43300 assessed as bacterial killing at 3XMIC incubated for 96 hrs in broth followed by culturing on agar plate for 4 hrs by time-kill kinetics analysis. The data set is classed as functional. The following applies: time 100 hrs.
In data set [14] the test system is Staphylococcus aureus. In words: Bactericidal activity against methicillin-resistant Staphylococcus aureus ATCC 43300 assessed as log reduction of bacterial colonies at 3XMIC incubated for 96 hrs in broth followed by culturing on agar plate for 4 hrs by time-kill kinetics analysis. The format is functional. The following applies: time 100 hrs.
Data set [15] concerns Staphylococcus aureus. In words: Antibacterial activity against methicillin-resistant Staphylococcus aureus ATCC43300 assessed as inhibition of bacterial growth measured after 17 to 18 days. The data set is classed as functional. The following applies: time 17-18 day.
Data set [16] in a line: Toxicity against rabbit red blood cells assessed as hemolysis rate at 100 ug/ml by absorbance based analysis. The data set is classed as cell-based, Oryctolagus cuniculus, Erythrocyte. The following applies: at 100 µg/mL, read-out: Activity.
For data set [17], the target named is T1, 70S ribosome (Staphylococcus aureus). The data set can be described thus: Inhibition of ribosomal peptidyl transferase centre in methicillin-resistant Staphylococcus aureus ATCC43300 assessed as bacterial cell rupture at 4XMIC by scanning electron microscopy. The data set is classed as functional.
Data set [18] relates to Staphylococcus aureus. In words: In vivo antibacterial activity against methicillin-resistant Staphylococcus aureus ATCC43300 infected in Kunming mouse assessed as decrease in lung lesions by measuring reduced congestion, hemorrhage and inflammatory cell infiltration at 40 mg/kg, ip administered at 1 hr post-infection. The format is functional, organism-based.
For data set [19], the system named is Staphylococcus aureus. In words: In vivo antibacterial activity against methicillin-resistant Staphylococcus aureus ATCC43300 infected in Kunming mouse assessed as decrease in bacterial load in lungs at 20 to 40 mg/kg, ip administered at 1 hr post-infection. The note with it: dose 20-40 mg/kg. The format is functional, organism-based.
Data set [20] deals with Staphylococcus aureus. In words: In vivo antibacterial activity against methicillin-resistant Staphylococcus aureus ATCC43300 infected in Kunming mouse assessed as log reduction of bacterial load in lungs at 40 mg/kg, ip administered at 1 hr post-infection and measured within 48 hrs. The format is functional.

In the case of `C=C[C@]1(C)C[C@@H](OC(=O)CSCCN(CC)CC)[C@]2(C)[C@H](C)CC[C@]3(CCC(=O)[C@H]32)[C@@H](C)[C@@H]1O` [TIAMULIN], the MIC was 0.5 µg/mL (≈ 1.01 µM) in the data set with Staphylococcus aureus [1]; 0.5 µg/mL (≈ 1.01 µM) in the data set with Staphylococcus aureus [2]; 0.5 µg/mL (≈ 1.01 µM) in the data set on Streptococcus pneumoniae; 0.25 µg/mL (≈ 0.506 µM) in data set [3]; over 64 µg/mL with Escherichia coli; 8 µg/mL (≈ 16.2 µM) in the data set on Staphylococcus aureus [4]. The minimum inhibitory concentration (MIC) in the data set with Staphylococcus aureus [5] was 32 µg/mL (≈ 64.8 µM). Also, the LC50 at 96 h in [6] amounted to 24 µg/mL (≈ 48.6 µM). In addition, the Activity entry with HEK293 and in the data set on HepG2 was “Toxic” in each case. The median effective dose (ED50) in the data set on Staphylococcus aureus [7] was 11.4 mg/kg.

Regarding `C=C[C@]1(C)C[C@@H](OC(=O)CSc2cccc(OCC(=O)N3CCS(=O)(=O)CC3)c2)[C@]2(C)[C@H](C)CC[C@]3(CCC(=O)[C@H]32)[C@@H](C)[C@@H]1O`, the MIC with Staphylococcus aureus [1] was under 0.031 µg/mL; in the data set with Staphylococcus aureus [2], under 0.031 µg/mL; with Streptococcus pneumoniae it was 0.125 µg/mL (≈ 0.189 µM); in [3], under 0.031 µg/mL; with Escherichia coli, over 64 µg/mL; in the data set on Staphylococcus aureus [9], 4 µg/mL (≈ 6.04 µM). In addition, the Activity was 99.99% in the data set with Staphylococcus aureus [8], “Non-toxic” in [10], “Toxic” in the data set with HEK293 and “Toxic” in the data set on HepG2. The 50% lethal concentration (LC50) at 96 h in [6] was determined as 149 µg/mL (≈ 225 µM). The inhibition result in data set [11] and in data set [12] was “Active” each time.

Regarding `C=C[C@]1(C)C[C@@H](OC(=O)CSc2ccccc2OCC(=O)N2CCS(=O)(=O)CC2)[C@]2(C)[C@H](C)CC[C@]3(CCC(=O)[C@H]32)[C@@H](C)[C@@H]1O`, the MIC is under 0.031 µg/mL in the data set with Staphylococcus aureus [1]; under 0.031 µg/mL in the data set on Staphylococcus aureus [2]; 0.125 µg/mL (≈ 0.189 µM) with Streptococcus pneumoniae; under 0.031 µg/mL in [3]; over 64 µg/mL with Escherichia coli; 8 µg/mL (≈ 12.1 µM) with Staphylococcus aureus [15]. Moreover, the Activity in the data set with Staphylococcus aureus [13] is recorded as 99.9%; in the data set with Staphylococcus aureus [14], -3.154 log10CFU/ml; with Staphylococcus aureus [8] it was 99.99%; in data set [10], “Non-toxic”; with HEK293, “Toxic”; with HepG2, “Toxic”. In addition, the values for the Activity result with Staphylococcus aureus [19] and with Staphylococcus aureus [20] were “Dose-dependent-effect” and 3 log10CFU/ml, respectively. The LC50 at 96 h in data set [6] stood at 165 µg/mL (≈ 249 µM). Further, the hemolysis at 100 ug/ml in data set [16] was under 15%. The inhibition entry in data set [11] and in [17] was “Active” throughout. Besides, in the data set with Staphylococcus aureus [7], the median effective dose (ED50) came to 6.48 mg/kg. Besides, the outcome in the data set with Staphylococcus aureus [18] was Active.
